Results reported in ChEMBL document CHEMBL3507680, “University of Dundee, Gates Library screen for HepG2 cell viability”.

Test: Human HepG2 cell viability assay in 384 well format
Format: toxicity, cell-based
Set-up: dose 125 nL, time 70.5 hour; concentration not given beside the values
Details: HepG2 cells, read-out: Inhibition

| SMILES | cytotoxicity at 70.5 h |
| --- | --- |
| CN(CCN1CCCC1)c1nccc(N2CCN[C@H]3CS(=O)(=O)C[C@H]32)n1 | 22.4% |
| COc1ccc(CN(C)C2CCN(S(C)(=O)=O)CC2)c2cccnc12 | -1.77% |
| Cc1cnn(CCC(=O)N2CCN(C(=O)C(C)C)[C@@H]3CS(=O)(=O)C[C@@H]32)c1 | -9.72% |
| Cn1cnc(S(=O)(=O)N2C[C@@H]3CC[C@H](C2)N(Cc2ccccn2)C3)c1 | -7.24% |
| CCC(CC)C(=O)N1CCC2(CC1)c1ccccc1[C@@H](OC)[C@@H]2O | -8.24% |
| CCn1nc(C)cc1C(=O)NCc1nc(C)cc(C)n1 | -13.2% |
| CCC[C@H]1CN(CCS(C)(=O)=O)C[C@@H]1NC(=O)c1cccnn1 | 7.31% |
| CC(C)c1cc(C(=O)N2CCCN(CCCc3ccccc3)CC2)[nH]n1 | -8.74% |
| Cc1cc(C(=O)N2CCN[C@H](C)C2)c2ccc(F)cc2n1 | 15.7% |
| COc1ccc(CCNC(=O)N2CCN(C)[C@@H]3CS(=O)(=O)C[C@@H]32)cc1 | -3.24% |
| CC(C)Oc1cc(N2CC[C@@H](N3CCOCC3)[C@H](O)C2)nc(N)n1 | -6.54% |
| Cn1ncc2c(N3CCCN4CCC[C@H]4C3)nc(C(C)(C)C)nc21 | -7.18% |
| CSc1cccc(CN(C)C(=O)Cn2ncc(N3CCCC3)cc2=O)c1 | -3.66% |
| CCNC(=O)[C@@H]1C[C@@H](N)CN1Cc1ccc(-c2ccccc2C#N)o1 | -6.11% |
| CCOc1ccc2[nH]c(=O)c(CN3CCN(S(N)(=O)=O)CC3)cc2c1 | -11.9% |
| CCn1nc(C(C)C)cc1C(=O)NCc1nc2ccc(OC)cc2[nH]1 | -14.7% |
| CCN(C)c1nccc(N2CCN[C@H]3CS(=O)(=O)C[C@H]32)n1 | 10.7% |
| O=C(CCn1cc(Cl)cn1)N1CCN(CCOc2ccccc2)CC1 | -4.12% |
| CCc1csc(CNC(=O)C(CC)n2cccn2)n1 (stereo not drawn) | -2.46% |
| CCn1c(N)nc2cc(C(=O)NCCCc3ccccn3)cnc21 | -15% |
| O=C(CCc1ccccn1)NC1CCCN(C2Cc3ccccc3C2)C1 (stereo not drawn) | -8.7% |
| CC(C(=O)O)N1CCc2onc(-c3ccc4c(c3)OCO4)c2C1 (stereo not drawn) | -3.84% |
| C[C@H](c1ccc(F)cc1)n1c(C2CCN(C)CC2)n[nH]c1=O | 19.4% |
| NCCc1cccc(CN2CCN(c3ccccc3)C(=O)C2)c1 | -9.38% |
| CCn1c(C2CCN(C(=O)c3cc(CC(C)C)on3)CC2)nn(C)c1=O | 6.02% |
| Cc1cc(C(=O)NCc2csc(N(C)C)n2)c2ccc(C)c(C)c2n1 | 0.264% |

| SMILES | cytotoxicity at 70.5 h |
| --- | --- |
| CCCc1nnc2sc(CC3CN(Cc4ccccc4)CCO3)nn12 (stereo not drawn) | -8.68% |
| COc1ccccc1-c1ccc(C(=O)N2C[C@H]3CC[C@@H]2CN(C)C3)cc1 | -8.1% |
| CSCCN1CCC(NC(=O)c2cccc(C3CCCNC3)c2)CC1 (stereo not drawn) | -24.6% |
| COCCn1c(=O)n(Cc2ccccc2C)c2cc(C(=O)O)ccc21 | -7.93% |
| Cc1ccsc1CN(C)CCc1scnc1C | 14.4% |
| CN(C)C(C(=O)N1CCC(C#N)CC1)c1ccccc1F (stereo not drawn) | -5.19% |
| O=c1cc(-c2cccnc2)nc(-c2ccc(CN3CC[C@H](O)C3)cc2)[nH]1 | 9.56% |
| c1cc2c(cc1OC[C@@H]1CCCN3CCCC[C@H]13)OCCO2 | 3.85% |
| COc1ccc(-c2noc(Cn3cc(C)cn3)n2)c(OC)c1OC | -1.78% |
| COc1c(F)cccc1C(=O)NC(C)c1cnn(C)c1 (stereo not drawn) | -8.49% |
| O=C(c1cnccn1)N1CCCC(Cn2cc(C3CCCC3)nn2)C1 (stereo not drawn) | -10.8% |
| CCn1ccnc1CN1CCCN(CC2CC2)C(C(C)C)C1 (stereo not drawn) | -5.83% |
| CN(Cc1nncn1C)C(=O)c1cc(COc2ccccc2F)[nH]n1 | -11.1% |
| CN1CCCCC1CCC(=O)NCCCn1ncc2ccccc21 (stereo not drawn) | -3.92% |
| CCC(CNc1ncnc2oc(C)nc12)Cc1ccccc1 (stereo not drawn) | -1.88% |
| O=S(=O)(N[C@H]1CC[C@H]1NC1Cc2ccccc2C1)c1cccnc1 | -6.2% |
| CCn1c(C)cc(C(=O)N2C[C@@H](C(=O)O)[C@H](c3ccccc3)C2)c1C | -2.74% |
| CC(=O)N1CCCn2nc(CNc3cc(C)ncn3)cc2C1 | 15% |
| OC1(CNCCN2CCc3ccccc32)CNCCOC1 (stereo not drawn) | -11% |
| Cn1cccc1C(=O)N1CC[C@@]2(O)CCN(S(C)(=O)=O)C[C@H]2C1 | -6.36% |
| CN(C)S(=O)(=O)N1C[C@@H]2CC[C@H](C1)N(C/C=C/c1ccc(F)cc1)C2 | 0.852% |
| COc1ccc(CN2CCC(CO)(Cc3ccc(Cl)cc3)CC2)c(O)c1 | -11.2% |
| O=C(c1cccc(-n2cccn2)c1)N1CCOC(CCO)C1 (stereo not drawn) | 1.32% |
| Cc1nsc(NC(=O)NC2CCCN(C)C2)n1 (stereo not drawn) | 29.6% |
| N#Cc1ccnc(N2CCC(NCCN3CCOCC3)CC2)c1 | -2.14% |
| O=C(NCCN1CCCC1)Nc1cc(C(=O)N2CCOCC2)ccc1Cl | -8.22% |

| SMILES | cytotoxicity at 70.5 h |
| --- | --- |
| COc1cc(C2CC(=O)NCc3nc4sccn4c32)cc(OC)c1O (stereo not drawn) | -13.6% |
| COc1cccc(CC2CN(C(=O)c3ccnn3C)CCO2)c1 (stereo not drawn) | -4.96% |
| O=c1n(Cc2ncccn2)nc(C2CCNCC2)n1-c1ccccc1 | -2.01% |
| O=C(NC1CC1)c1ccnc(-c2cc(NCCO)nc3[nH]ccc23)c1 | 21.9% |
| OC1CN(Cc2cccc(N3CCOCC3)c2)Cc2ccccc21 (stereo not drawn) | -0.922% |
| CC(C)NCC1(O)CCCN(CCC2CCCCC2)C1=O (stereo not drawn) | -7.37% |
| CCOCCN1CCN([C@@H]2c3ccccc3C3(CCNCC3)[C@H]2O)CC1 | 28.9% |
| O=C1OCCN1C1CCN(Cc2cc3n(n2)CCCNC3)CC1 | 17.1% |
| COc1ccc(C)cc1-n1cnnc1CC1CCNCC1 | -3.84% |
| COCCNc1cc(-c2ccccc2C(=O)O)c2cc[nH]c2n1 | -10.4% |
| Cc1cc(CN2CCC(CNC(=O)c3ccc4[nH]cnc4c3)C2)[nH]n1 (stereo not drawn) | -6.71% |
| COC(=O)[C@H]1C[C@@H](O)CCN1S(=O)(=O)c1cc(C)c(Cl)cc1C | 0.229% |
| O=C(O)[C@@H]1CN(C2CCOCC2)C[C@H]1C1CC1 | -7.25% |
| CSCCC1c2nc[nH]c2CCN1Cc1ccccc1C(F)(F)F (stereo not drawn) | 0.321% |
| CN(CC(C)(C)C)c1ccc(C(=O)NCCCc2ccccn2)cn1 | -8.74% |
| Nc1nc2c(c(NCc3cnc4c(c3)CCC4)n1)CCNC2 | -10.4% |
| CN1CCCC(c2nc3c([nH]2)CC(C)(C)CNC3=O)C1 (stereo not drawn) | 13.5% |
| CNc1ccnc(N2C[C@@H](C)[C@](O)(C3CCC3)C2)n1 | 26% |
| Cc1cc(-c2cc(C3CCOC3)c(C#N)c(N)n2)ccc1Cl (stereo not drawn) | -10.8% |
| Cc1nnnn1CCC(=O)N1CCC2(CCC(=O)N(CC3CC3)C2)CC1 | -8.64% |
| CCc1oc(C(=O)NC(C)c2ncn[nH]2)cc1CN1CCCC1 (stereo not drawn) | -10.5% |
| COc1ccc(F)c(CN2CCCC(O)(CNC3CCCCC3)C2=O)c1 (stereo not drawn) | -2.81% |
| Cn1cnnc1CCC(=O)N1CCCC(OCc2cccnc2)C1 (stereo not drawn) | -0.989% |
| CC(C)OCCCNC(=O)C1CCC(=O)N(C2CCCC2)C1 (stereo not drawn) | 17.3% |
| O=C1OCCN1CCNC(=O)C1(N2CCCCC2)Cc2ccccc2C1 | -7.56% |
| CCc1cc(N(C)CCC(O)c2ccccc2)n2nccc2n1 (stereo not drawn) | 30.6% |
